Test results published in patent publication US6670384B2, “Methods of administering epothilone analogs for the treatment of cancer” (Bristol-Myers Squibb Company, priority 2001, dated 2003).
Read-outs that look alike come from different tables or passages of the source.

Legend:
[1] = Stability of the drug during dissolution in tertiary butanol/water and lyophilization; type: physicochemical; settings: tertiary butanol/Water for Injection 1:1 at 5 EC, lyophilized at −16 EC 48 hours, dried at 15 EC 48 hours, light protected
Procedure: [1S-[1R*,3R*(E),7R*,10S*,11R*,12R*,16S*]]-7,11-Dihydroxy-8,8,10,12,16-pentamethyl-3-[1-methyl-2-(2-methyl-4-thiazolyl)ethenyl]-4-aza-17-oxabicyclo[14.1.0]heptadecane-5,9-dione, 9.86 g, was wetted/partially dissolved with 600 mL of a 9:1 mixture of tertiary butanol and Water for Injection USP which had been pre-cooled to 5 EC. Once the drug powder had become completely wetted, dissolution was completed by the addition of 600 mL of a 1:9 mixture of tertiary butanol and Water for Injection and 766 mL of a 1:1 mixture of tertiary butanol and Water for Injection which likewise had been pre-cooled to 5 EC thereby making the final solution a 1:1 mixture. The dissolution was carried out under protection from light.
The solution formed above was promptly lyophilized in a Virtis INOTOP lyophilizer at −16 EC under light protectant conditions over a period of 48 hours. The resultant lyophilized product (lyophile) was then further dried at 15 EC under high vacuum for 48 hours. […] The lyophile was packaged under sterile conditions into 30 mL vials, each containing 10 mg of drug and standard excess to allow for vial/needle/syringe loss.

[2] = Dose escalation study of weekly IV Compound II in cancer patients (MTD, dose limiting toxicity); type: in vivo, human; settings: 30 minute IV infusion every week
Excerpt: (§1) A total of 24 cancer patients (12 male and 12 female) received compound II by IV administration to evaluate the maximum tolerated dose (MTD), the dose limiting toxicity (DLT), the pharmacokinitics and pharmacodynamics, and to evaluate the anti-tumor activity of compound II. The median age (range) of the patients was 57 (34-74). 5 patients had breast cancer, 5 patients had head and neck cancer, 2 patients had sarcoma, 2 patients had colorectal cancer, 2 patients had UPT cancer, 2 patients had melanoma, 2 patients had cancer of the esophagus, 1 patient had renal cancer, 1 patient had cervical cancer, 1 patient had thyroid cancer, and 1 patient had anal cancer. 21 patients had received prior chemotherapy (18 patients received neurotoxic agents and 18 patients received radiotherapy). The median number of prior chemotherapy lines including adjuvant (range) was 2 (1-3).
Patients were orally administered compound II on day 1 (for dose levels of 20 mg/m^2 and higher) followed by a 30 minute IV infusion of compound II every week starting on day 7. Patients were administered compound II at doses of 1, 2.5, 5, 10, 20, 25, and 30 mg/m^2.

breast tumors = experiment: Anti-tumor response in previously treated cancer patients, breast tumors; type: in vivo, human; settings: breast cancer patients previously treated with chemotherapy
Excerpt: as §1
(§2) In a second study a total of 12 cancer patients (5 male and 7 female) were orally administered compound II on day 1 followed by a 30 minute IV infusion of compound II every week starting on day 7 at a dose of 25 mg/m^2 to evaluate neurotoxicity of compound II. The median age (range) of the patients was 51 (30-65). 4 patients had colorectal cancer, 3 patients had breast cancer, 2 patients had melanoma, 1 patient had renal cancer, 1 patient had sarcoma, and 1 patient had ovary cancer. […]

[3] = Pharmacokinetics of Compound II given orally and intravenously to cancer patients (plasma, LC/MS/MS); type: in vivo, human; settings: for Tmax / Cmax / bioavailability: human, plasma; for bioavailability: read-out: % F (absolute bioavailability)
Procedure: Patients with Advanced Malignancies were administered Compound II weekly as a 30-minute infusion (a course=3 intravenous weekly administrations). Patients received doses of 1, 2.5, 5, 10, 20, 25, or 30 mg/m^2. […] The dose of oral Compound II administered on Day 6 matched the dose of IV Compound II administered on day 1. Serial plasma sampling was obtained on day 6 and day 1 of course 1 to assess pharmacokinetics by an LC/MS/MS.
Samples were analyzed by adding an internal standard to 0.2 mL of plasma sample, precipitating with acetone, and then extracting the supernatant with 1-chlorobutane. The organic layer was removed and evaporated to dryness. The residue was reconstituted and injected into the LC/MS/MS system. Chromatographic separation was achieved, isocratically, on a YMC ODS-AQ column (4.6×50 mm, 3:m) with a mobile phase of acetonitrile:0.01M ammonium acetate, pH 5.0 (65:35). Detection was by negative electrospray tandem mass spectrometry. The standard curve, which ranged from 2 to 500 ng/mL for all analytes and was fitted to a 1/x weighted quadratic regression model.
The propylene glycol/ethanol mixture was prepared by mixing 80 parts by volume of propylene glycol and 20 parts by volume of ethanol in a suitable container and gently swirling the container until the solution was completely mixed.
Buffer for use with Compound II was constituted with water for injection (WFI).
Compound II was prepared for administration to patients by using a suitable syringe to slowly inject 2.5, 5, or 10 mL of the propylene glycol/ethanol mixture into the 20 cc vial containing 25 mg/vial of Compound II, to give concentrations of 10, 5, or 2.5 mg/mL, respectively, depending on the dose to be administered to the patient. The syringe was removed and the vial shaken vigorously for 10 seconds. The vial was placed in a sonication bath and sonicated until the solution became clear. Vials were pooled depending on the dose.
The bottle was shaken vigorously or sonicated with intermittent shaking until a clear solution was obtained.
Following oral administration on day 6, 7 mL blood samples was collected into Becton Dickinson Vacutainer tubes with K3EDTA as anticoagulent (lavender-colored top) according to the following schedule (expressed as hours:minutes from the start of the oral administration): predose, 00:15, 00:30, 00:45, 1:00, 1:30, 2:00, 3:00, 4:00, 6:00, 8:00, 24:00, 48:00, and 72:00. Following IV administration on day 1, 7 mL blood samples were collected into Becton Dickinson Vacutainer tubes with K3EDTA as anticoagulent (lavender-colored top) according to the following schedule (expressed as hours:minutes from the start of the IV infusion):predose, 00:15, 00:30 (end-of infusion), 00:45, 1:00, 1:30, 2:00, 3:00, 4:00, 6:00, 8:00, 24:00, 48:00, and 72:00.
Immediately after blood collection, the Vacutainer tubes were inverted several times to ensure mixing with the anticoagulant and then immediately placed on crushed ice. Within 30 minutes of collection, samples were centrifuged for 5 minutes at approximately 2000×g and 0 to 5 EC. The plasma was then transferred to separate pre-labeled screw-capped polypropylene tubes and stored at −70 EC until bioanalysis. Plasma concentrations of Compound II were analyzed using the LC/MS/MS assay.
The plasma concentration versus time data were analyzed using non-compartmental methods. The pharmacokinetic parameters determined for Compound II included the maximum observed plasma concentration (Cmax), time to reach Cmax (Tmax), area under the plasma concentration time curve from time zero to the time of last sampling time T(AUC(0-T)).
A total of 18 patients have received oral Compound II as a solution on day 6 and by IV on day 1.

colon tumors = experiment: Anti-tumor response in previously treated cancer patients, colon tumors; type: in vivo, human; settings: metastatic colon cancer patients previously treated with chemotherapy
Excerpt: as §1, §2

For `C/C(=C\c1csc(C)n1)C1C[C@@H]2O[C@]2(C)CCC[C@H](C)[C@H](O)[C@@H](C)C(=O)C(C)(C)[C@@H](O)CC(=O)N1` (relative stereo) [Compound II, [1S-[1R*,3R*(E),7R*,10S*,11R*, 12R*,16S*,]]-7,11-Dihydroxy-8,8,10,12,16-pentamethyl-3-[1-methyl-2-(2-methyl-4-thiazolyl)ethenyl]-4-aza-7-oxabicyclo[14.1.0]heptadecane-5,9-dione], the “degradation of the drug during dissolution, lyophilization and drying” value [1] was “No detectable degradation”, the “weekly dose administered without severe toxicity being observed” value [2] was “up to 30 mg/m^2” and the “tumor response to treatment” value (breast tumors) was “responded”. For the same compound, the “AUC(0-T)” value ([3]; 20 mg/m^2, IV, patients N=3, mean) was 796 H · ng/mL, the “AUC(0-T)” value ([3]; 20 mg/m^2, oral solution, patients N=3, mean) was 404 H · ng/mL and the “AUC(0-T)” value ([3]; 25 mg/m^2, IV, patients N=11, mean) was 848 H · ng/mL. The “AUC(0-T)” value ([3]; 25 mg/m^2, oral solution, patients N=11, mean) was 533 H · ng/mL, the “AUC(0-T)” value ([3]; 30 mg/m^2, IV, patients N=4, mean) was 1155 H · ng/mL and the “AUC(0-T)” value ([3]; 30 mg/m^2, oral solution, patients N=4, mean) was 708 H · ng/mL. It also gave a Tmax ([3]; 20 mg/m2, 20 mg/m^2, IV, patients N=3, median) of 15 min, a Cmax ([3]; 20 mg/m2, 20 mg/m^2, oral solution, patients N=3, mean) of 142 ng/mL and a Tmax ([3]; 20 mg/m2, 20 mg/m^2, oral solution, patients N=3, median) of 60 min. It also gave a Tmax ([3]; 25 mg/m2, 25 mg/m^2, IV, patients N=11, median) of 30 min, a Cmax ([3]; 25 mg/m2, 25 mg/m^2, oral solution, patients N=11, mean) of 180 ng/mL and a Tmax ([3]; 25 mg/m2, 25 mg/m^2, oral solution, patients N=11, median) of 30 min. The Tmax ([3]; 30 mg/m2, 30 mg/m^2, IV, patients N=4, median) was 30 min, the Cmax ([3]; 30 mg/m2, 30 mg/m^2, oral solution, patients N=4, mean) was 274 ng/mL and the Tmax ([3]; 30 mg/m2, 30 mg/m^2, oral solution, patients N=4, median) was 30 min. It also gave a Cmax ([3]; 20 mg/m^2, IV 30-minute infusion, patients N=3, mean) of 251 ng/mL, a bioavailability ([3]; 20 mg/m^2, oral solution vs IV, patients N=3, mean) of 43.5% and a Cmax ([3]; 25 mg/m^2, IV 30-minute infusion, patients N=11, mean) of 447 ng/mL. The bioavailability ([3]; 25 mg/m^2, oral solution vs IV, patients N=11, mean) was 55.6%, the Cmax ([3]; 30 mg/m^2, IV 30-minute infusion, patients N=4, mean) was 711 ng/mL and the bioavailability ([3]; 30 mg/m^2, oral solution vs IV, patients N=4, mean) was 62.2%. The “tumor response to treatment” value (colon tumors) was “responded”.
